Measured values reported in article PMC8621172, “Manipulating Estrogenic/Anti-Estrogenic Activity of Triphenylethylenes towards Development of Novel Anti-Neoplastic SERMs” (International Journal of Molecular Sciences, 2021).
“Also recorded” adds a separate entry of the source.

Assays:
ovariectomized rats = assay: Uterotrophic assay in ovariectomized rats; type: in vivo, rat; settings: for uterotrophic effect (in words): compared to TAM; for Relative uterus wet weight: s.c. 10 mg/kg/d BW for three days
Description: Compounds showing appreciable estrogenic activity in the YES assay and that were able to inhibit the growth of MCF-7 cancer cell lines yet with low estrogenic activity on Ishikawa endometrial adenocarcinoma cells might serve as potential ideal SERMS. Compounds 12 and 19 were therefore selected for the in vivo experiments to assess their estrogenic properties in an uterotrophic assay in an ovariectomized rat model. The in vivo uterotrophic rat assay is the gold standard assay to test for the estrogenic effect of compounds; the assay uses adult ovariectomized (OVX) female rats where there is no significant source of endogenous estrogens. Compounds that have estrogenic effects cause uterotrophic response due to the imbibition of water and growth of the uterine cells. Statistically significant uterine weight increases compared to controls provide a positive result. Adopting both in vivo and in vitro assays was inevitable due to the limitations of each assay. The cell lines are not properly able to recapitulate the in vivo environment of the uterus within the body. On the other hand, the rat uterotrophic assay merely considers the uterine weight gain as an endpoint of estrogenicity without taking into account all factors that play a role in exerting an estrogenic effect on the organ and body.
The most common short-term in vivo assay for estrogenicity/anti-estrogenicity is the uterotrophic assay, suitable for screening ERα agonists and antagonists. The primary endpoint is the uterine wet weight (UWW). An increase in UWW indicates an estrogenic activity of the test compound. Compounds 12 and 19 were screened using the in vivo uterotrophic assay.
The most common short-term in vivo assay for (anti)-estrogenicity is the uterine growth test, suitable for screening ERα agonists and antagonists. The primary endpoint is the uterine wet weight (UWW). An increase in UWW indicates an estrogenic activity of the test compound [43]. Sprague Dawley female rats (170–200 g) were obtained from the animal colony of the National Institute of Research (Cairo, Egypt). The rats were housed in a temperature-controlled room (23–24 °C) with a 12 h light:dark cycle and with free access to food and water. They were allowed to acclimatize to the animal house of the German University in Cairo for at least 1 week before initiating the experiments. All efforts were made to minimize animal discomfort and suffering. Animals were ovariectomized. After 14 days of endogenous hormonal decline, the animals were subcutaneously treated for three days with respective compounds. The animals were randomly allocated to treatment and vehicle groups (n = 6). […] The uterus wet weight was determined.

prostate cell lines = assay: NCI five-dose assay, prostate subpanel; type: cell-based; settings: Homo sapiens
Experimental: (§1) All compounds were subjected to the NCI in vitro disease-oriented human cells screening panel assay. The human tumor cell lines of the cancer-screening panel are grown in RPMI 1640 medium containing 5% fetal bovine serum and 2 mM L-glutamine. For a typical screening experiment, cells are inoculated into 96-well microtiter plates in 100 μL at plating densities ranging from 5000 to 40,000 cells/well depending on the doubling time of individual cell lines. After cell inoculation, the microtiter plates are incubated at 37 °C, 5% CO2, 95% air, and 100% relative humidity for 24 h prior to the addition of experimental drugs. After 24 h, two plates of each cell line are fixed in situ with TCA to represent a measurement of the cell population for each cell line at the time of drug addition. Experimental drugs are solubilized in dimethyl sulfoxide at 400-fold the desired final maximum test concentration and stored frozen prior to use. At the time of drug addition, an aliquot of frozen concentrate is thawed and diluted to twice the desired final maximum test concentration with complete medium containing 50 μg/mL gentamicin. […] Bound stain is subsequently solubilized with a 10 mM trizma base, and the absorbance is read on an automated plate reader at a wavelength of 515 nm. […] Three response parameters (GI50, TGI, and LC50) were calculated for each cell line.

renal cell lines = assay: NCI five-dose assay, renal subpanel; type: cell-based; settings: Homo sapiens
Experimental: as §1

MDA-MB-468 = assay: NCI five-dose assay, TNBC cell line MDA-MB-468; type: cell-based, human; settings: MDA-MB-468, five-dose assay
Experimental: as §1

NSCLC cell lines = assay: NCI five-dose assay, NSCLC subpanel; type: cell-based; settings: Homo sapiens
Experimental: as §1

With COc1ccc(C(C)=C(c2ccc(Cl)cc2)c2ccc(OCCN3CCCCC3)cc2)cc1 [Compound 12, E/Z-1-(2-{4-[1-(4-Chloro-phenyl)-2-(4-methoxy-phenyl)-propenyl]-phenoxy}-ethyl)-piperidine] the “uterotrophic effect (in words)” value (ovariectomized rats) was “no uterotrophic effect; also recorded: less increase in UWW” and the “Relative uterus wet weight” value (ovariectomized rats) was 1.23 ± 0.18 g/kg BW.
In the case of CCN(CC)CCOc1ccc(C(=C(C)c2ccc(F)c(OC)c2)c2ccc(Cl)cc2)cc1 [Compound 28, E/Z-(2-{4-[1-(4-Chlorophenyl)-2-(4-fluoro-3-methoxyphenyl)-propenyl]-phenoxy}-ethyl)-diethyl-amine], the GI50 (prostate cell lines) is reported as 2310 nM, the GI50 (renal cell lines) is reported as 2400 nM and the “anti-proliferative activity compared to TAM” value (MDA-MB-468) is reported as “equipotent to TAM”. It also gave a GI50 (NSCLC cell lines) of 2340 nM.
In the case of COc1ccc(C(C)=C(c2ccc(Cl)cc2)c2ccc(OCCN3CCCCCC3)cc2)cc1F [Compound 19, E/Z-1-(2-{4-[1-(4-Chlorophenyl)-2-(3-fluoro-4-methoxyphenyl)-propenyl]-phenoxy}-ethyl)-azepane], the “uterotrophic effect (in words)” value (ovariectomized rats) is reported as “less increase in UWW” and the “Relative uterus wet weight” value (ovariectomized rats) is reported as 1.15 ± 0.18 g/kg BW.
